Assay results as given in the NIST ThermoML archive (doi:10.1021/acs.jced.5b00242).

Columns and labels:
[1] = refractive index (Na D-line) (dimensionless); conditions: 101 kPa, Liquid, Standard Abbe refractometry
[2] = Liquid; for viscosity: 101 kPa, Stabinger Viscometer; for mass density: 101.33 kPa, Vibrating tube method
[3] = xn = mol fraction of the nth substance listed; conditions: 101 kPa, Liquid, x1 = 1; for mass density: Vibrating tube method
[4] = refractive index (Na D-line) (dimensionless); xn = mol fraction of the nth substance listed; conditions: 101 kPa, Liquid, Standard Abbe refractometry, x1 = 1

CCn1cc[n+](C)c1.NCCS(=O)(=O)[O-] [1-ethyl-3-methylimidazolium taurinate]
Conditions	mass density, [2] [kg/m3]	refractive index, [1]	viscosity, [2] [mPa·s]
293.15 K	1255	1.5135	760.89
298.15 K	1251.5	1.51217	514.67
303.15 K	1248.1	1.51084	359.36
308.15 K	1244.8	1.5095	258.04
313.15 K	1241.6	1.50816	190.44
318.15 K	1238.6	1.5068	143.31
323.15 K	1235.5	1.50543	110.35
328.15 K	1232.4	1.50403	86.59
333.15 K	1229.2	1.5027	69.36
338.15 K	1226.1	1.50136	56.05
343.15 K	1223	1.49997	46.1
348.15 K	1219.9	1.4986	38.4
353.15 K	1216.8	1.49726	32.53

CCn1cc[n+](C)c1.N#C[C-](C#N)C#N [1-ethyl-3-methyl-1H-imidazolium tricyanomethanide] + CCn1cc[n+](C)c1.O=C([O-])[C@@H]1CCCN1
[3], Stabinger Viscometer
Conditions	viscosity [mPa·s]
293.15 K	16.62
298.15 K	14.19
303.15 K	12.18
308.15 K	10.58
313.15 K	9.02
318.15 K	8.2
323.15 K	7.31
328.15 K	6.56
333.15 K	5.72
338.15 K	5.38
343.15 K	4.91
348.15 K	4.5
353.15 K	3.98

Conditions	mass density, [3] [kg/m3]	refractive index, [4]
293.15 K	1084.6	1.51454
298.15 K	1081	1.51286
303.15 K	1077.5	1.51114
308.15 K	1073.9	1.50938
313.15 K	1070.4	1.50765
318.15 K	1067.1	1.50595
323.15 K	1063.7	1.50419
328.15 K	1060.3	1.50255
333.15 K	1056.9	1.50087
338.15 K	1053.6	1.49921
343.15 K	1050.2	1.49757
348.15 K	1046.8	1.49593
353.15 K	1043.4	1.49429

CCn1cc[n+](C)c1.N#C[C-](C#N)C#N [1-ethyl-3-methyl-1H-imidazolium tricyanomethanide] + CCn1cc[n+](C)c1.NCC(=O)[O-]
[3], Stabinger viscometer
Conditions	viscosity [mPa·s]
293.15 K	16.62
298.15 K	14.19
303.15 K	12.18
308.15 K	10.58
313.15 K	9.02
318.15 K	8.2
323.15 K	7.31
328.15 K	6.56
333.15 K	5.72
338.15 K	5.38
343.15 K	4.91
348.15 K	4.5
353.15 K	3.98

Conditions	mass density, [3] [kg/m3]	refractive index, [4]
293.15 K	1084.6	1.51454
298.15 K	1081	1.51286
303.15 K	1077.5	1.51114
308.15 K	1073.9	1.50938
313.15 K	1070.4	1.50765
318.15 K	1067.1	1.50595
323.15 K	1063.7	1.50419
328.15 K	1060.3	1.50255
333.15 K	1056.9	1.50087
338.15 K	1053.6	1.49921
343.15 K	1050.2	1.49757
348.15 K	1046.8	1.49593
353.15 K	1043.4	1.49429

CCn1cc[n+](C)c1.N#C[C-](C#N)C#N [1-ethyl-3-methyl-1H-imidazolium tricyanomethanide] + CC[n+]1ccn(C)c1.N[C@@H](CO)C(=O)[O-]
[3], Stabinger Viscometer
Conditions	viscosity [mPa·s]
293.15 K	16.62
298.15 K	14.19
303.15 K	12.18
308.15 K	10.58
313.15 K	9.02
318.15 K	8.2
323.15 K	7.31
328.15 K	6.56
333.15 K	5.72
338.15 K	5.38
343.15 K	4.91
348.15 K	4.5
353.15 K	3.98

Conditions	mass density, [3] [kg/m3]	refractive index, [4]
293.15 K	1084.6	1.51454
298.15 K	1081	1.51286
303.15 K	1077.5	1.51114
308.15 K	1073.9	1.50938
313.15 K	1070.4	1.50765
318.15 K	1067.1	1.50595
323.15 K	1063.7	1.50419
328.15 K	1060.3	1.50255
333.15 K	1056.9	1.50087
338.15 K	1053.6	1.49921
343.15 K	1050.2	1.49757
348.15 K	1046.8	1.49593
353.15 K	1043.4	1.49429

CCn1cc[n+](C)c1.N#C[C-](C#N)C#N [1-ethyl-3-methyl-1H-imidazolium tricyanomethanide] + CCn1cc[n+](C)c1.NCCS(=O)(=O)[O-]
[3], Stabinger Viscometer
Conditions	viscosity [mPa·s]
293.15 K	16.62
298.15 K	14.19
303.15 K	12.18
308.15 K	10.58
313.15 K	9.02
318.15 K	8.2
323.15 K	7.31
328.15 K	6.56
333.15 K	5.72
338.15 K	5.38
343.15 K	4.91
348.15 K	4.5
353.15 K	3.98

Conditions	mass density, [3] [kg/m3]	refractive index, [4]
293.15 K	1084.6	1.51454
298.15 K	1081	1.51286
303.15 K	1077.5	1.51114
308.15 K	1073.9	1.50938
313.15 K	1070.4	1.50765
318.15 K	1067.1	1.50595
323.15 K	1063.7	1.50419
328.15 K	1060.3	1.50255
333.15 K	1056.9	1.50087
338.15 K	1053.6	1.49921
343.15 K	1050.2	1.49757
348.15 K	1046.8	1.49593
353.15 K	1043.4	1.49429
